Experimental data from BindingDB's records for doi:10.1021/jm00032a002 (Merck Sharp and Dohme Research Laboratories, 1994).

Biological target: Gastrin/cholecystokinin type B receptor (Cavia porcellus)
Test: Binding activity against Cholecystokinin type B receptor from guinea pig cortex using [125]BH CCK-8s as radioligand.

IC50: 5.7 nM
SMILES: Cc1cccc(NC(=O)NC2N=C(N3CCCCC3)c3ccccc3N(C)C2=O)c1 (stereo unspecified) [1-(1-Methyl-2-oxo-5-piperidin-1-yl-2,3-dihydro-1H-benzo[e][1,4]diazepin-3-yl)-3-m-tolyl-urea]
